Experimental data taken from patent US20100028417A1, “USE OF SUBSTITUTED GLYCERIN DERIVATIVES FOR PRODUCING A PHARMACEUTICAL PREPARATION” (priority 2006, published 2010).

What was measured:
cytochrome P450 [1] = test: in vivo activity (inhibition of cytochrome P450 activity)
cytochrome P450 [2] = test: in vitro inhibition of cytochrome P450 activity; assay type: biochemical

Row | SMILES | in vivo activity compared with 10-undecinyl acid (cytochrome P450 [1]) | inhibition of cytochrome P450 activity (cytochrome P450 [2])
1 | C#CCCCCCCCCC(C)(C)C(=O)O [2,2-dimethyl-11-dodecinyl acid] | far superior in vivo | comparably high inhibition
2 | C#CCCCCCCCCC(=O)O [10-undecinyl acid] |  | comparably high inhibition
